Publication PMC7071059, “Targeting Receptor Tyrosine Kinase VEGFR-2 in Hepatocellular Cancer: Rational Design, Synthesis and Biological Evaluation of 1,2-Disubstituted Benzimidazoles” (Molecules, 2020)

How the values were obtained:
[1] = tested on: HepG2 cell line; assay: In vitro cytotoxic activity, Sulfo-Rhodamine-B (SRB) assay; type: cell-based, human; details: Homo sapiens, HepG2, 48 h, SRB assay, 48 h; mean of three independent experiments; read-out: IC50 (μM) on HepG2 Cell Line
[2] = tested on: A498; assay: NCI 60 one dose (10 μM) anticancer assay; type: cell-based; details: Homo sapiens, 10 µM one dose, Renal Cancer, read-out: Growth Inhibition % A498
Method: (§1) Some of the synthesized compounds were selected by the NCI, Bethesda, MD, USA for evaluation of their anticancer activity. An in vitro one dose (10 μM) anticancer assay was conducted on a full NCI 60-cell line panel derived from 9 different cancer types. Table 2 presents the percent of growth inhibition of some cell lines. […] K-562 and MOLT-4 from leukemia, NCI-H522 from non-small cell lung cancer, HCT-116 from colon cancer, SK-MEL-5 and UACC-62 from melanoma, UO-31 from renal cancer, PC-3 from prostate cancer and HS 578T and T-47D from breast cancer are the most sensitive cell lines to the tested compounds. No growth inhibition was observed from the selected compounds against COLO205, HCC-2998, MALME-3M, SK-MEL-28, DU-145 and BT-549 cell lines. […] Against UO-31 from renal cancer and PC-3 from prostate cancer, it inhibited the growth of 44% and 58% of the cancer cells, respectively.

[3] = tested on: A549/ATTC; assay: NCI 60 one dose (10 μM) anticancer assay; type: cell-based; details: Homo sapiens, 10 µM one dose, Non-small cell lung Cancer, read-out: Growth Inhibition % A549/ATTC
Method: as §1

[4] = tested on: BT-549; assay: NCI 60 one dose (10 μM) anticancer assay; type: cell-based; details: Homo sapiens, 10 µM one dose, Breast Cancer, read-out: Growth Inhibition % BT-549
Method: as §1

[5] = tested on: HOP-92; assay: NCI 60 one dose (10 μM) anticancer assay; type: cell-based; details: Homo sapiens, 10 µM one dose, Non-small cell lung Cancer, read-out: Growth Inhibition % HOP-92
Method: as §1

[6] = tested on: HS 578T; assay: NCI 60 one dose (10 μM) anticancer assay; type: cell-based; details: Homo sapiens, 10 µM one dose, Breast Cancer, read-out: Growth Inhibition % HS 578T
Method: as §1

[7] = tested on: K-562; assay: NCI 60 one dose (10 μM) anticancer assay; type: cell-based; details: Homo sapiens, K562; 10 µM one dose; Leukemia; read-out: Growth Inhibition % K-562
Method: as §1

[8] = tested on: LOX IMVI; assay: NCI 60 one dose (10 μM) anticancer assay; type: cell-based; details: Homo sapiens, 10 µM one dose, Melanoma, read-out: Growth Inhibition % LOX IMVI
Method: as §1

[9] = tested on: M14; assay: NCI 60 one dose (10 μM) anticancer assay; type: cell-based; details: Homo sapiens, 10 µM one dose, Melanoma, read-out: Growth Inhibition % M14
Method: as §1

[10] = tested on: MDA-MB-468; assay: NCI 60 one dose (10 μM) anticancer assay; type: cell-based; details: Homo sapiens, 10 µM one dose, Breast Cancer, read-out: Growth Inhibition % MDA-MB-468
Method: as §1

[11] = tested on: NCI-H460; assay: NCI 60 one dose (10 μM) anticancer assay; type: cell-based; details: Homo sapiens, 10 µM one dose, Non-small cell lung Cancer, read-out: Growth Inhibition % NCI-H460
Method: as §1

[12] = tested on: NCI-H522; assay: NCI 60 one dose (10 μM) anticancer assay; type: cell-based; details: Homo sapiens, 10 µM one dose, Non-small cell lung Cancer, read-out: Growth Inhibition % NCI-H522
Method: as §1

[13] = tested on: NCI/ADR-RES; assay: NCI 60 one dose (10 μM) anticancer assay; type: cell-based; details: Homo sapiens, 10 µM one dose, Ovarian Cancer, read-out: Growth Inhibition % NCI/ADR-RES
Method: as §1

[14] = tested on: PC-3; assay: NCI 60 one dose (10 μM) anticancer assay; type: cell-based; details: Homo sapiens, 10 µM one dose, Prostate Cancer, read-out: Growth Inhibition % PC-3
Method: as §1

[15] = tested on: PRMI-8226; assay: NCI 60 one dose (10 μM) anticancer assay; type: cell-based; details: 10 µM one dose; Leukemia; read-out: Growth Inhibition % PRMI-8226
Method: as §1

[16] = tested on: SW-620; assay: NCI 60 one dose (10 μM) anticancer assay; type: cell-based; details: Homo sapiens, 10 µM one dose, Colon Cancer, read-out: Growth Inhibition % SW-620
Method: as §1

[17] = tested on: HSF cell line; assay: In vitro growth inhibitory activity on normal human skin fibroblast, SRB assay; type: cell-based; details: for IC50: Homo sapiens, HSF, SRB assay, 48 h, normal cell line, mean of three independent experiments
Method: The anticancer activity of the synthesized compounds was measured in vitro using the Sulfo-Rhodamine-B (SRB) assay according to Skehan et al.. Briefly, HepG2 or HSF cells (obtained from Nawah Scientific) were inoculated in 96-well microtiter plates (10^4 cells/ well) for 24 h before treatment with the tested compounds to allow attachment of cells to the walls of the plates. Test compounds were dissolved in DMSO immediately before use and diluted to the appropriate volume just before addition to the cell culture. […] Three wells were prepared for each individual dose. Monolayer cells were incubated with the compounds for 48 h at 37 °C and in an atmosphere of 5% CO2. After 48 h, cells were fixed, washed and stained for 30 min with 0.4% (w/v) SRB dissolved in 1% acetic acid. Unbound dye was removed by four washes with 1% acetic acid and attached stain was recovered with Tris-EDTA buffer. Color intensity was measured in an ELISA reader. The relation between surviving fraction and drug concentration was plotted to get the survival curve.

[18] = tested on: SR; assay: NCI 60 one dose (10 μM) anticancer assay; type: cell-based; details: Homo sapiens, 10 µM one dose, Leukemia, read-out: Growth Inhibition % SR
Method: as §1

[19] = target: VEGFR-2 (Homo sapiens, UniProt P35968); assay: Biochemical kinase assay (Kinase-Glo Plus luminescence)
Chain of VEGFR-2 (P35968 20-1356): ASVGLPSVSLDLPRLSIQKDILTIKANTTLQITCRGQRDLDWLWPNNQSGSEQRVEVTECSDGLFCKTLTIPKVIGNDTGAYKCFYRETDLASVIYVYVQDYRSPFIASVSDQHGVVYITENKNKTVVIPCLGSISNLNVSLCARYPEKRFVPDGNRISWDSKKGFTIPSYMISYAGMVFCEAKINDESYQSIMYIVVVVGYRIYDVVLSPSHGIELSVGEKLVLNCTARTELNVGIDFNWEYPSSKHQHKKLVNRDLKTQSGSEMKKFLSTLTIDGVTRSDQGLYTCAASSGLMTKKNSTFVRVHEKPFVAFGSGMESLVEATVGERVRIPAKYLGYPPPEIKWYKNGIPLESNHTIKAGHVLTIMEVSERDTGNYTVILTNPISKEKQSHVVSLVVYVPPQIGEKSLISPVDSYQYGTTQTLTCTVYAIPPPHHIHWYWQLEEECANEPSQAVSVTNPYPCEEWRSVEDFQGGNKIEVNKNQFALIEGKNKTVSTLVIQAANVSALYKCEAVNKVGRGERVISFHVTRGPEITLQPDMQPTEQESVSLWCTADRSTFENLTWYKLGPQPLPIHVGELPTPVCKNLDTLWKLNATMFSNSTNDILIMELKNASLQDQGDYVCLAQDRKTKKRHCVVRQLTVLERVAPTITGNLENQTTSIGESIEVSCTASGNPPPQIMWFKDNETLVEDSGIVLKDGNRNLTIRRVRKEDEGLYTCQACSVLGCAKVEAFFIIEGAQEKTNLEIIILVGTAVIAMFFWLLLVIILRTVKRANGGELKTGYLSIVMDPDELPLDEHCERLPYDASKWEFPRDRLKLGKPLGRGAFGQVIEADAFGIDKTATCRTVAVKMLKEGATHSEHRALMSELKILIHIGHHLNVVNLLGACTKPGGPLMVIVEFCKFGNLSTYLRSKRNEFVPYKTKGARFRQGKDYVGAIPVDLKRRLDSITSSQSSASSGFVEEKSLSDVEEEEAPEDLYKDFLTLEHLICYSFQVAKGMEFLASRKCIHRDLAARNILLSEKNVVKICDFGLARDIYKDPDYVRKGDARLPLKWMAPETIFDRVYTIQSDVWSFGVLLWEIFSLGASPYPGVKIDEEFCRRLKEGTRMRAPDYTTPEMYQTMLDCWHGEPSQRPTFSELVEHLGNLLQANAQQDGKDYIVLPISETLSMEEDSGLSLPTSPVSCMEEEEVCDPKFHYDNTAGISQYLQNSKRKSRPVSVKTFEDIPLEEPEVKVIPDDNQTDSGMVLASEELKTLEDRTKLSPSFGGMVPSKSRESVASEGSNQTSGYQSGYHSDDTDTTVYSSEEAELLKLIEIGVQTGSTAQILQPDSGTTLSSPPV
Method: This assay was carried out using the VEGFR-2 kinase enzyme system or FGFR-1 kinase enzyme system and Kinase-Glo Plus luminescence kinase (Promega) kits according to the manufacturers´ protocols. This assay evaluated the activity of kinase by measuring the amount of ATP remaining in solution after a kinase reaction. The luminescent signal from the assay was related to the quantity of ATP available, which was inversely proportional to the amount of kinase activity. […] Subsequently, serial dilutions were carried out, and 5 µL of the dilution was added to a 50 µL reaction. The enzymatic reactions were performed at 30 °C for 45 minutes. The 50 µL reaction mixture contained 40 mM Tris, pH 7.4, 10 mM MgCl2, 0.1 mg/mL BSA, 1 mM DTT, 0.2 mg/ml Poly (Glu, Tyr) substrate, 10 μM ATP and protein. After the enzymatic reaction, 50 µL of Kinase-Glo Plus Luminescence kinase assay solution was added to each reaction, and the plates were incubated for 15 minutes at room temperature. The luminescence signal was measured using a Tecan–spark multimode microplate reader. The difference between luminescence intensities in the absence of Kinase (Lut) and in the presence of Kinase (Luc) was defined as 100% activity (Lut − Luc). Using a luminescence signal (Lu) in the presence of the compound, % activity was calculated as: % activity = {(Lut − Lu)/(Lut − Luc)}×100%, where Lu = the luminescence intensity in the presence of the compound.

SMILES	IC50 [1] [µM]	inhibition at 10 µM [2] [%]	inhibition at 10 µM [3] [%]	inhibition at 10 µM [4] [%]	inhibition at 10 µM [5] [%]	inhibition at 10 µM [6] [%]	inhibition at 10 µM [7] [%]	inhibition at 10 µM [8] [%]	inhibition at 10 µM [9] [%]	inhibition at 10 µM [10] [%]	inhibition at 10 µM [11] [%]	inhibition at 10 µM [12] [%]	inhibition at 10 µM [13] [%]	inhibition at 10 µM [14] [%]	inhibition at 10 µM [16] [%]	melting point [°C]	inhibition at 10 µM [18] [%]	other results
C/C(=N\NC(=O)Cn1c(C(C)C)nc2ccccc21)c1ccccc1 [Compound 14a, (E)-2-(2-Isopropyl-1H-benzo[d]imidazol-1-yl)-N′-(1-phenylethylidene)acetohydrazide]	25.9	49	< 10	< 10	18	24	< 10	< 10	< 10	29	< 10	< 10	< 10	< 10	18	176 to 178		inhibition at 10 µM [15]: < 10%
CC(C)c1nc2ccccc2n1CC(=O)N/N=C/c1cccc(OCc2ccccc2)c1 [Compound 17a, (E)-N′-(3-(Benzyloxy)benzylidene)-2-(2-isopropyl-1H-benzo[d]imidazol-1-yl)acetohydrazide]	1.98	17	16	28		20	57	< 10	16	47	< 10	33	< 10	58	< 10		64	IC50 [17]: 19.9 µM; selectivity to the HepG2 cell line over the normal HSF cell line ([17]; from IC50 HSF vs IC50 HepG2): about ten-fold higher selectivity; IC50 [19]: 0.11 ± 0.003 µM
Cc1ccc(-c2nc3ccccc3n2CC(=O)N/N=C/c2cccc(OCc3ccccc3)c2)o1 [Compound 17b, (E)-N′-(3-(Benzyloxy)benzylidene)-2-(2-(5-methylfuran-2-yl)-1H-benzo[d]imidazol-1-yl)acetohydrazide]	10	16	42	< 10	32	25	54	23	24	20	27	28	29	46	13	180 to 182	25	IC50 [17]: 4.8 µM; inhibition at 10 µM [15]: 50%; IC50 [19]: 0.14 ± 0.004 µM
CC(C)c1nc2ccccc2n1CC(=O)N/N=C/c1ccc(OCc2ccccc2)cc1 [Compound 17c, (E)-N′-(4-(Benzyloxy)benzylidene)-2-(2-isopropyl-1H-benzo[d]imidazol-1-yl)acetohydrazide]	20.2	< 10	< 10	< 10	< 10	16	28	< 10	< 10	< 10	< 10	26	< 10	17	< 10	209 to 211	< 10	
Cc1ccc(-c2nc3ccccc3n2CC(=O)N/N=C/c2ccc(OCc3ccccc3)cc2)o1 [Compound 17d, (E)-N′-(4-(Benzyloxy)benzylidene)-2-(2-(5-methylfuran-2-yl)-1H-benzo[d]imidazol-1-yl)acetohydrazide]	15.6	17	23	< 10		32	41	17	< 10	< 10	< 10	27	< 10	29	< 10	201 to 203	16	
COc1cc(/C=N/NC(=O)Cn2c(C(C)C)nc3ccccc32)ccc1OCc1ccccc1 [Compound 17e, (E)-N′-(4-(Benzyloxy)-3-methoxybenzylidene)-2-(2-isopropyl-1H-benzo[d]imidazol-1-yl)acetohydrazide]	24.1	22	< 10	< 10	< 10	< 10	25	< 10	< 10	< 10	< 10	32	< 10	20	< 10	180 to 182	< 10	
COc1cc(/C=N/NC(=O)Cn2c(-c3ccc(C)o3)nc3ccccc32)ccc1OCc1ccccc1 [Compound 17f, (E)-N′-(4-(Benzyloxy)-3-methoxybenzylidene)-2-(2-(5-methylfuran-2-yl)-1H-benzo[d]imidazol-1-yl)acetohydrazide]	42.5	21	27	< 10		30	34	< 10	< 10	23	< 10	26	< 10	37	< 10	139 to 141	25	
